Reference: article PMC7179439, “Synthesis and Structure-Activity Relationship Studies of Hydrazide-Hydrazones as Inhibitors of Laccase from Trametes versicolor” (Molecules, 2020)
Several values for one entry are separate records, joined by “and”; a condition that tells them apart may be missing. Equal entries are not always repeated. Where two headings read alike, the source gives them in different places.

Assays:
[1] = target: laccase from Trametes versicolor; assay: Laccase enzyme inhibition assay with syringaldazine as substrate; assay type: biochemical; parameters: key to The type of inhibition: a: competitive; b: uncompetitive; c: not determined; d: non-competitive; conditions: for Ki: 25 °C, pH 5.3, syringaldazine substrate, 6.25% v/v organic co-solvent; for The type of inhibition / type of inhibition: Lineweaver-Burk transformation
Method: The activity of laccase was determined using the procedure described by Leonowicz and Grzywnowicz. Basically, a standard reaction mixture contained the enzyme in McIlvaine buffer (1.5 mL, pH 5.3) in the presence or absence of tested compounds (0.1 mL) and substrate – syringaldazine (0.1 mL). Two water-miscible media were tested as suitable co-solvents for hydrazide-hydrazones which are poorly soluble in water. For that purpose, the stability of laccase (40 nM, McIlvaine buffer, pH 5.3) in methanol and DMSO (6.25% v/v) at 25 °C was investigated (see Supplementary Material). The samples containing the enzyme, with a volumetric buffer–co-solvent ratio of 15:1, were withdrawn in different time intervals for 1500 min. A reaction system contained the 1.6 mL of the collected sample and 0.1 mL of syringaldazine (5.9 µM). Laccase activity was determined spectrophotometrically (UV-VIS 1800, Shimadzu, Reinach, Switzerland) by monitoring the changes in absorbance at 525 nm resulted from oxidation of the substrate syringaldazine with an extinction coefficient ε0 = 65000 M^−1·cm^−1 [99]. Kinetic parameters, Km and k3 were determined for two protein concentrations (20 and 40 nM) and with the nine concentrations of syringaldazine (0.59 to 20 µM), using the Michaelis-Menten model, Equation (1):V = Vmax · CS/(Km + CS), k3 = Vmax/CE(1) where Km [µM], k3 [min^–1] – kinetic constants, Vmax – maximal velocity [µM·min^–1], CS – substrate concentration [µM], CE – enzyme concentration [µM].
The parameters of the function were estimated using the nonlinear least square method in Matlab (The Mathworks, R2019a Version 9.6, academic licence). The method was used simultaneously for datasets obtain for different enzyme concertation. The common minimum of error function was found for all considered datasets resulting in one common estimate of each model parameter. The goodness of fit was assessed using the coefficient of determination (R^2); the sum of squared errors (SSE) and root mean squared error (RMSE). The 25 hydrazide-hydrazones, 4-hydroxybenzoic acid (control, 4-HBA), 4-hydroxybenzohydrazide (4a – 4-HBAH), and sodium azide (control) were tested against laccase in the standard reaction mixture. Prior to the substrate addition, the laccase and tested compound were pre-incubated for 10 min at 25 °C. At least three inhibitor concentrations were used in each experiment. All measurements were performed in triplicate. To determine the type of inhibition Lineweaver–Burk transformation was used applying the following equations for competitive (2), uncompetitive (3) and non-competitive model (4). The parameters of these equations were estimated using the linear least square method. 1/V = Km/Vmax · (1 + Ci/Ki) · 1/CS + 1/Vmax(2) 1/V = Km/Vmax · 1/CS + 1/Vmax · (1 + Ci/Ki)(3) 1/V = Km/Vmax · (1 + Ci/Ki) · 1/CS + 1/Vmax · (1 + Ci/Ki)(4) where Km [µM]—Michaelis-Menten constant, Vmax—maximal velocity [µM·min^–1], Ki—inhibition constant [µM], CS—substrate concentration [µM], Ci—inhibitor concentration [µM].

[2] = test system: laccase from Pleurotus eryngii; conditions: cited from earlier work; for Ki: ABTS as substrate, mixed type of inhibition ref 85
[3] = target: laccase from Pleurotus ostreatus; conditions: ABTS as substrate ref 86; cited from earlier work

Row | SMILES | melting point | Ki [1] | The type of inhibition [1] | type of inhibition [1] | other results
1 | COc1cccc(/C=N/NC(=O)c2ccc(O)cc2)c1 (hydrate or solvate) [1i, 4-Hydroxy-N’-[(E)-(3-methoxyphenyl)methylidene]benzohydrazide] | 210 to 212 °C |  |  |  | 
2 | O=C(N/N=C/c1cccc(-c2ccccc2)c1O)c1ccc(O)cc1 (hydrate or solvate) [2a, 4-Hydroxy-N’-[(E)-(2-hydroxy-3-phenyl-phenyl)methylidene]benzohydrazide monomethanolate] | 215 to 218 °C |  |  |  | 
3 | O=C(N/N=C/c1ccccc1)c1ccc(O)cc1 [1a, 4-Hydroxy-N’-[(E)-benzylidene]benzohydrazide] |  | 1470 ± 58 µM | a |  | 
4 | O=C(N/N=C/CCc1ccccc1)c1ccc(O)cc1 [1b, 4-Hydroxy-N’-[(E)-3-phenylpropylidene]benzohydrazide] | 243.5 to 244 °C | 1920 ± 163 µM | b |  | 
5 | Cc1ccc(/C=N/NC(=O)c2ccc(O)cc2)cc1 [1c, 4-Hydroxy-N’-[(E)-(4-methylphenyl)methylidene]benzohydrazide monomethanolate] |  | 251 ± 26 µM | a | competitive | 
6 | O=C(N/N=C/c1ccccc1S(=O)(=O)[O-])c1ccc(O)cc1.[Na+] [1d, Sodium 2-{(E)-[2-(4-hydroxybenzoyl)hydrazinylidene]methyl}benzenesulfonate] | 251 °C (dec.) | ≥ 2400 µM |  |  | 
7 | O=C(N/N=C/c1ccccc1O)c1ccc(O)cc1 [1e, 4-Hydroxy-N’-[(E)-(2-hydroxyphenyl)methylidene]benzohydrazide] |  | 674 ± 10 µM | a | competitive | 
8 | O.O=C(N/N=C/c1cccc(O)c1)c1ccc(O)cc1 [1f, 4-Hydroxy-N’-[(E)-(3-hydroxyphenyl)methylidene]benzohydrazide monohydrate] |  | 2400 ± 334 µM | a |  | 
9 | O=C(N/N=C/c1ccc(O)cc1)c1ccc(O)cc1 [1g, 4-Hydroxy-N’-[(E)-(4-hydroxyphenyl)methylidene]benzohydrazide] |  | 638 ± 35 µM | b |  | 
10 | COc1ccccc1/C=N/NC(=O)c1ccc(O)cc1 [1h, 4-Hydroxy-N’-[(E)-(2-methoxyphenyl)methylidene]benzohydrazide] |  | 1060 ± 18 µM | a |  | 
11 | COc1cccc(/C=N/NC(=O)c2ccc(O)cc2)c1 [1i, 4-Hydroxy-N’-[(E)-(3-methoxyphenyl)methylidene]benzohydrazide] |  | 416 ± 1.5 µM | a | competitive | 
12 | O=C(N/N=C/c1cccc(-c2ccccc2)c1O)c1ccc(O)cc1 [2a, 4-Hydroxy-N’-[(E)-(2-hydroxy-3-phenyl-phenyl)methylidene]benzohydrazide monomethanolate] |  | 25.3 ± 6.9 µM | a | competitive | 
13 | CC(C)(C)c1cccc(/C=N/NC(=O)c2ccc(O)cc2)c1O [2b, 4-Hydroxy-N’-[(E)-(3-tert-butyl-2-hydroxyphenyl)methylidene]benzohydrazide] | 240 to 242 °C | 24 ± 5.9 µM | a | competitive | 
14 | O=C(N/N=C/c1ccc(O)cc1O)c1ccc(O)cc1 [2c, 4-Hydroxy-N’-[(E)-(2,4-dihydroxyphenyl)methylidene]benzohydrazide] | 294 °C (dec.) | 939 ± 30 µM | b | uncompetitive | inhibitory potency towards laccase [1]: practically inactive
15 | O=C(N/N=C/c1cc(Br)ccc1O)c1ccc(O)cc1 [2d, 4-Hydroxy-N’-[(E)-(5-bromo-2-hydroxyphenyl)methylidene]benzohydrazide] | 276 to 278 °C | ≥ 1000 µM |  |  | 
16 | COc1cccc(O)c1/C=N/NC(=O)c1ccc(O)cc1 [2e, 4-Hydroxy-N’-[(E)-(6-methoxy-2-hydroxyphenyl)methylidene]benzohydrazide] | 256.5 to 257.5 °C | ≥ 1000 µM |  |  | 
17 | COc1cccc(OC)c1/C=N/NC(=O)c1ccc(O)cc1 [2f, 4-Hydroxy-N’-[(E)-(2,6-dimethoxyphenyl)methylidene]benzohydrazide] | 214.5 to 216 °C | ≥ 1000 µM |  |  | inhibitory potency towards laccase [1]: practically inactive
18 | COc1cc(/C=N/NC(=O)c2ccc(O)cc2)ccc1O [2g, 4-Hydroxy-N’-[(E)-(4-hydroxy-3-methoxyphenyl)methylidene]benzohydrazide] | 218.5 to 220 °C | 251 ± 38 µM | a | competitive | 
19 | COc1ccc(C(=O)N/N=C/c2cccc(-c3ccccc3)c2O)cc1 [2h, 4-Methoxy-N’-[(E)-2-hydroxy-3-phenyl-benzylidene]benzohydrazide] | 240 to 242.5 °C | ≥ 1000 µM |  |  | 
20 | Cc1cc(/C=N/NC(=O)c2ccc(O)cc2)c(O)c(CO)c1 [3a, 4-Hydroxy-N’-[(E)-2-hydroxy-3-hydroxymethyl-5-methyl-benzylidene]benzohydrazide] | 229 to 230 °C | ≥ 1000 µM |  |  | 
21 | Cc1cc(CO)cc(/C=N/NC(=O)c2ccc(O)cc2)c1O [3b, 4-Hydroxy-N’-[(E)-(5-hydroxymethyl-3-methyl-2-hydroxyphenyl)methylidene]benzohydrazide] | 266 °C (dec.) | ≥ 1000 µM |  |  | 
22 | CC(C)(C)c1cc(/C=N/NC(=O)c2ccc(O)cc2)c(O)c(C(C)(C)C)c1 [3c, 4-Hydroxy-N’-[(E)-(3,5-di-tert-butyl-2-hydroxyphenyl)methylidene]benzohydrazide] | 274.5 to 275.5 °C | 17.9 ± 1.3 µM | b |  | 
23 | Cc1cc(/C=N/NC(=O)c2ccc(O)cc2)c(O)c(C(C)(C)C)c1 [3d, 4-Hydroxy-N’-[(E)-3-tert-butyl-2-hydroxy-5-methylbenzylidene]benzohydrazide] | 261 to 263 °C and 261 to 262 °C | 26.4 ± 3.4 µM | a | competitive | 
24 | Cc1ccc(C(C)C)c(O)c1/C=N/NC(=O)c1ccc(O)cc1 [3e, 4-Hydroxy-N’-[(E)-(2-hydroxy-3-isopropyl-6-methylphenyl)methylidene]benzohydrazide] | 258.5 to 260.5 °C | ≥ 1000 µM |  |  | 
25 | COc1cc(O)c(/C=N/NC(=O)c2ccc(O)cc2)c(OC)c1 [3f, 4-Hydroxy-N’-[(E)-(2-hydroxy-4,6-dimethoxyphenyl)methylidene]benzohydrazide] | 231.5 to 234.5 °C | ≥ 1000 µM |  |  | 
26 | Cc1cc(/C=N/NC(=O)c2cccc(O)c2)c(O)c(C(C)(C)C)c1 [3g, 3-Hydroxy-N’-[(E)-(3-tert-butyl-2-hydroxy-5-methylphenyl)methylidene]benzohydrazide] | 240 to 242.5 °C | 32 ± 8 µM | d | non-competitive | 
27 | O=C(O)c1ccc(O)cc1 [4-HBA, 4-hydroxybenzoic acid, reference compound] |  | ≥ 2400 µM |  |  | inhibitory potency towards laccase [1]: no inhibitory potency
28 | COc1ccc(C(=O)NN)cc1 [4b, reference compound] |  | ≥ 2400 µM |  |  | inhibitory potency towards laccase [1]: no inhibitory potency
29 | [N-]=[N+]=[N-].[Na+] [NaN3, sodium azide] |  | 2.72 ± 0.3 µM | d | non-competitive | type of inhibition ([2]; ABTS as substrate ref 85): mixed type of inhibition; Ki ([2]; read-out: Kic): 17.6 µM; Ki ([2]; read-out: Kiu): 10.6 µM; Ki [3]: 16.5 µM; type of inhibition [3]: non-competitive
